Marks after values point to notes of the source that are not given here. Where a SMILES comes first, the peptide text is derived from it. [ ]: non-standard residue; d: D form. The star is where a group is joined. X1 = CCN(CC)c1ccc2c(c1)Oc1cc(N(CC)CC)ccc1C2c1ccccc1C(=O)*; Ac6c = NC1(C(=O)O)CCCCC1; Ac5c = NC1(C(=O)O)CCCC1
Assays:
[1] = Partition coefficient, shake-flask method, 1-octanol/phosphate buffer; assay type: physicochemical; conditions: shake-flask 1-octanol/phosphate buffer (NaH2PO4/Na2HPO4), pH 7.41 ± 0.01, 25 °C, system stirred 12 h, absorbance and emission read-out, standard additions
From the text: The effectiveness of biomolecules is mainly due to specific structural and physicochemical properties. In principle, the properties of peptides/proteins are very diverse and directly related to their bioactivity. […] With the manifestation of hydrophilic properties, the occurrence of a hydration process is possible; swelling, increasing their mass and volume, while it is possible to partially limit the solubility of the molecule, in which case the peptide molecule becomes more unstable. At the isoelectric point, peptides have the least ability to bind water, i.e., to hydrate; the hydration shell around the peptide molecules breaks down so that they combine to form, for example, aggregates. When the pH of the medium changes, the peptide macromolecule is charged, and its hydration capacity changes. […] Due to the obtained values, the studied compounds can be arranged in the following sequence from hydrophilic to hydrophobic (lipophilic): Rh-S > Rh-S5 > Rh-S6. This corresponds to the data from the morphology of the compound, where an analogous order of increasing porosity/hydrophilicity was found (Figure 3). It can be seen that the replacement of natural proline with unnatural steric restricted amino acids such as 1-aminocyclopentanecarboxylic acid (Ac5c) and 1-aminocyclohexanecarboxylic acid (Ac6c) (neuropeptides Rh-S5 and Rh-S6) leads to an increase in lipophilicity, which would assist passage through the brain barrier and increase the efficiency of the molecule. […]
The partition coefficients of the spinorphin-rhodamine derivatives were determined in a 1-octanol/phosphate buffer system (NaH2PO4/Na2HPO4, pH 7.41 ± 0.01). […] After separation, the absorbance and emission of the solutions of the two phases were measured and the amount of dissolved analyte was determined by the method of standard additions. […] The partition coefficient was calculated by the following equation: P = C^oct/buf/C^buf/oct, where C^oct/buf and C^buf/oct are the molar concentrations of the solute in the mutually saturated phases of 1-octanol and buffer.

[2] = system: 6-Hz-induced psychomotor seizures; test: Six Hz psychomotor seizure test; assay type: in vivo, mice; conditions: i.c.v.; for % Protection / No. of Animals Protected/No. of Animals Tested: 6 Hz test, male ICR mice, test 10 min after administration; for anticonvulsant effect against 6-Hz-induced psychomotor seizures (in words): highest dose of 20 μg
From the text: (§1) The screeing test for anticonvulsant activity of drugs was perfomed on male ICR mice (25–30 g), purchased by the vivarium of the Institute of Neurobiology, BAS. They were kept in standard laboratory conditions and cages in groups of 5–6 per cage with ad libitum access to commercial pellets for rodents and water. After a week of adaptation, all mice were allocated in groups of 6 according to their treatment and test procedure. Each mouse was used only for one experiment. All procedures were performed in agreement with the European Communities Council Directive 2010/63/EU. The experimental design was approved by the Bulgarian Food Safety Agency (#300/№ 5888–0183).
(§2) […] The test for anticonvulsant activity was carried out 10 min after drug administration.
The test for assessment drug effect against psychomotor seizures was performed via a constant current device and corneal electrodes as previously. The criterion for assessing the anticonvulsant activity was restoration of normal posture 10 s after stimulation. Controls (mice treated with vehicle) were unable to resume normal behavior and stimulation trigger different stereotypic responses and automatism such as sniffing, vibrissae, locomotion, Straub tail, or clonic seizures.
(§3) For the 6-Hz test and MES a Fisher’s exact test (two-tailed) was applied. A one-way ANOVA of variance was used for the ivPTZ test and a Dunnet post hoc test in case of significance. Statistical significance was accepted at p ≤ 0.05 vs. control (Fisher’s exact test). The calculations were carried out with SigmaPlot program (11.0 version) and Graph Pad Prizm (Version 7.04) (GraphPad Software, San Diego, CA, USA).

tonic seizures (MES) = test: Maximal electroshock test (MES test); assay type: in vivo, mice; conditions: i.c.v.; for % Mortality / % Protection / No. of Animals Protected/No. of Animals Tested: male ICR mice; for No. of Animals Protected/No. of Animals Tested: test 10 min after administration
From the text: as §1, §2
The MES test was carried out with the device used for the 6-Hz test according to the protocol reported in [38, 39]. The criterion for protection was accepted when the mouse […].
as §3

Candida albicans = test: Antifungal activity test, paper disc diffusion; assay type: cell-based; conditions: C. albicans, Sabouraud Agar, 20 μL of 50 mg/mL, 24 h
Description: Tests were carried out on the Candida albicans fungus. The concentration of the extract tested was 50 mg/mL. The culture of each test fungus was taken to be tilted using an asepticose needle and rejuvenated in a liquid medium. In each medium, there is a spore density of […]. The prepared medium Sabouraud Agar (SA) in a petri dish with each culture was scratched on the top, then placed on the paper disc (paper disc), and then a peptide sample of 20 μL was placed on the paper disc. It was further incubated for 24 h and the resistance zone formed measured.

[3] = Antioxidant activity, DPPH radical scavenging; conditions: 77 μL sample + 3 mL DPPH, 30 min in the dark, 517 nm, standard BHT
Description: The determination of the antioxidant activity of the new peptide derivatives was carried out by inserting 77 μL of hL extract into a test tube, then adding 3 mL of DPPH solution, homogenizing, and incubating for 30 min in a dark room. The measurement of antioxidant activity was performed by a spectrophotometer with a wavelength of 517 nm. The treatment was carried out three times. The determination of activity for the standard solution was conducted by first diluting 0.025 BHT (butylated hydroxytoluene) with 1 mL of methanol. Then 3 mL of DPPH was added to 77 μL of BHT solution in a test tube, homogenized, and incubated for 30 min in a dark room. The treatment was repeated three times. For the blank, only 77 μL of methanol plus 3 mL of DPPH were used, then homogenized and incubated for 30 min in a dark room. According to Millauskas et al. (2004), the free radical scavenging activity of the sample was calculated by the formula:(3) DPPH radical concentration (%)=Acontrol− Asample/Acontrol × 100 where Acontrol is the absorbance value of the control reaction and Asample is the absorbance value in the presence of the tested extracts sample.

[4] = mice, p ≤ 0.05 compared to control

CCN(CC)c1ccc2c(c1)Oc1cc(N(CC)CC)ccc1C2c1ccccc1C(=O)N[C@@H](CC(C)C)C(=O)N[C@H](C(=O)N[C@H](C(=O)N[C@@H](Cc1ccc(O)cc1)C(=O)NC1(C(=O)N[C@@H](Cc2c[nH]c3ccccc23)C(=O)N[C@H](C(N)=O)[C@@H](C)O)CCCC1)C(C)C)C(C)C [Rh-S5, rhodamineB-Leu-Val-Val-Tyr-Ac5c-Trp-Thr-NH2] (X1-LVVY[Ac5c]WT-NH2)
logD [1]: -0.168
% Protection ([2]; dose 5 µg/10 µL): 17%
No. of Animals Protected/No. of Animals Tested ([2]; dose 5 µg/10 µL): 1/6
% Protection ([2]; dose 10 µg/10 µL): 33%
No. of Animals Protected/No. of Animals Tested ([2]; dose 10 µg/10 µL): 2/6
% Protection ([2]; dose 20 µg/10 µL): 83 * %
No. of Animals Protected/No. of Animals Tested ([2]; dose 20 µg/10 µL): 5/6
anticonvulsant effect against 6-Hz-induced psychomotor seizures (in words) [2, 4]: significant anticonvulsant effect
% Mortality (tonic seizures (MES); MES test, dose 5 µg/10 µL): 17%
% Protection (tonic seizures (MES); MES test, dose 5 µg/10 µL): 41%
% Mortality (tonic seizures (MES); MES test, dose 10 µg/10 µL): 17%
% Protection (tonic seizures (MES); MES test, dose 10 µg/10 µL): 42%
No. of Animals Protected/No. of Animals Tested (tonic seizures (MES); MES test, dose 10 µg/10 µL): 5/12
% Mortality (tonic seizures (MES); MES test, dose 20 µg/10 µL): 17%
% Protection (tonic seizures (MES); MES test, dose 20 µg/10 µL): 67 * %
No. of Animals Protected/No. of Animals Tested (tonic seizures (MES); MES test, dose 20 µg/10 µL): 4/6
protective potency against tonic seizures (in words) (tonic seizures (MES); MES test, mice, dose of 20 µg, p ≤ 0.05 compared to control): stronger protective potency compared to the heptapeptide Rh-S
antifungal activity, diameter of the inhibitory zone (in words) (Candida albicans): slightly higher than the negative control
antioxidant activity compared to the positive control (in words) [3]: weak

CCN(CC)c1ccc2c(c1)Oc1cc(N(CC)CC)ccc1C2c1ccccc1C(=O)N[C@@H](CC(C)C)C(=O)N[C@H](C(=O)N[C@H](C(=O)N[C@@H](Cc1ccc(O)cc1)C(=O)NC1(C(=O)N[C@@H](Cc2c[nH]c3ccccc23)C(=O)N[C@H](C(N)=O)[C@@H](C)O)CCCCC1)C(C)C)C(C)C [Rh-S6, rhodamineB-Leu-Val-Val-Tyr-Ac6c-Trp-Thr-NH2] (X1-LVVY[Ac6c]WT-NH2)
logD [1]: -0.197
% Protection ([2]; dose 5 µg/10 µL): 33%
No. of Animals Protected/No. of Animals Tested ([2]; dose 5 µg/10 µL): 2/6
% Protection ([2]; dose 10 µg/10 µL): 50%
No. of Animals Protected/No. of Animals Tested ([2]; dose 10 µg/10 µL): 3/6
% Protection ([2]; dose 20 µg/10 µL): 67 * %
No. of Animals Protected/No. of Animals Tested ([2]; dose 20 µg/10 µL): 4/6
anticonvulsant effect against 6-Hz-induced psychomotor seizures (in words) [2, 4]: significant anticonvulsant effect
% Mortality (tonic seizures (MES); MES test, dose 5 µg/10 µL): 0%
% Protection (tonic seizures (MES); MES test, dose 5 µg/10 µL): 100 * %
No. of Animals Protected/No. of Animals Tested (tonic seizures (MES); MES test, dose 5 µg/10 µL): 6/6
% Mortality (tonic seizures (MES); MES test, dose 10 µg/10 µL): 0%
% Protection (tonic seizures (MES); MES test, dose 10 µg/10 µL): 100 * %
No. of Animals Protected/No. of Animals Tested (tonic seizures (MES); MES test, dose 10 µg/10 µL): 6/6
% Mortality (tonic seizures (MES); MES test, dose 20 µg/10 µL): 0%
% Protection (tonic seizures (MES); MES test, dose 20 µg/10 µL): 100 * %
No. of Animals Protected/No. of Animals Tested (tonic seizures (MES); MES test, dose 20 µg/10 µL): 6/6
mortality in the MES test (in words) (tonic seizures (MES); mice, at the three doses studied (5, 10 and 20 μg)): no mortality
protection in the MES test (tonic seizures (MES); mice, at the three doses studied (5, 10 and 20 μg), p ≤ 0.05 compared to control): 100%
antifungal activity, diameter of the inhibitory zone (in words) (Candida albicans): slightly higher than the negative control
antioxidant activity compared to the positive control (in words) [3]: similar

CCN(CC)c1ccc2c(c1)Oc1cc(N(CC)CC)ccc1C2c1ccccc1C(=O)N[C@@H](CC(C)C)C(=O)N[C@H](C(=O)N[C@H](C(=O)N[C@@H](Cc1ccc(O)cc1)C(=O)N1CCC[C@H]1C(=O)N[C@@H](Cc1c[nH]c2ccccc12)C(=O)N[C@H](C(N)=O)[C@@H](C)O)C(C)C)C(C)C [Rh-S, rhodamineB-Leu-Val-Val-Tyr-Pro-Trp-Thr-NH2] (X1-LVVYPWT-NH2)
logD [1]: 0.54
% Protection ([2]; dose 5 µg/10 µL): 67 * %
No. of Animals Protected/No. of Animals Tested ([2]; dose 5 µg/10 µL): 4/6
% Protection ([2]; dose 10 µg/10 µL): 100 * %
No. of Animals Protected/No. of Animals Tested ([2]; dose 10 µg/10 µL): 6/6
% Protection ([2]; dose 20 µg/10 µL): 67 * %
No. of Animals Protected/No. of Animals Tested ([2]; dose 20 µg/10 µL): 4/6
protection against 6-Hz-induced psychomotor seizures (in words) ([2]; mice, at the three doses used (5, 10, and 20 μg), p ≤ 0.05 compared to control): significant protection
% Mortality (tonic seizures (MES); MES test, dose 5 µg/10 µL): 50%
% Protection (tonic seizures (MES); MES test, dose 5 µg/10 µL): 50%
No. of Animals Protected/No. of Animals Tested (tonic seizures (MES); MES test, dose 5 µg/10 µL): 3/6
% Mortality (tonic seizures (MES); MES test, dose 10 µg/10 µL): 0%
% Protection (tonic seizures (MES); MES test, dose 10 µg/10 µL): 50%
No. of Animals Protected/No. of Animals Tested (tonic seizures (MES); MES test, dose 10 µg/10 µL): 3/6
% Mortality (tonic seizures (MES); MES test, dose 20 µg/10 µL): 33%
% Protection (tonic seizures (MES); MES test, dose 20 µg/10 µL): 67 * %
No. of Animals Protected/No. of Animals Tested (tonic seizures (MES); MES test, dose 20 µg/10 µL): 4/6
antifungal activity, diameter of the inhibitory zone (in words) (Candida albicans): slightly higher than the negative control
antioxidant activity compared to the positive control (in words) [3]: similar
